# Test results taken from patent publication US20030129190A1, “FX activity in cells in cancer, inflammatory responses and diseases and in autoimmunity” (Ramot University Authority for Applied Research & …, priority 1999, published 2003).
# Tested on: E-selectin-IgG chimera
# Conditions: 5 mM EDTA; shear stress 1 dyn/cm^2
# Protocol: Cells (10^6/ml) were perfused at room temperature through the chamber at a shear stress of 1 dyn/cm^2 in binding medium alone or in the presence of 5 mM EDTA (Erg+EDTA). The number of cells which accumulated and maintained rolling at the end of 1 min of perfusion in two microscopic fields was determined as described in materials and methods. […] After 1 min perfusion, adherent cells were subjected to an abrupt 5-fold increase of shear stress and the number of cells that remained bound for at least 5 sec after the increase of shear was determined. The mean number +/− range of cells accumulated at 1 dyn/cm^2 and of accumulated cells remaining stably bound at 5 dyn/cm^2 on two fields of view are shown for the E48^lo and E48^hi cells. […] Data are representative of four independent experiments.
# Cultured IUC cells grown as monolayers were harvested by a 10 min incubation with H/H medium (Hanks Balanced Salt Solution, HBSS (Sigma Israel Chemicals Ltd., Rehovot, Israel), containing BSA (2 mg/ml, fraction V, Sigma) and 10 mM HEPES, pH 7.4), supplemented with 5 mM EDTA at 37 Washed cells were resuspended in the same medium at a concentration of 1×10^7 cells/ml and kept at room temperature until use. Cells were diluted 20 fold into binding medium (H/H supplemented with 2 mM Ca^2+) and immediately perfused through the flow chamber. […]
smiles,measurement,value
O=C(O)CN(CCN(CC(=O)O)CC(=O)O)CC(=O)O [EDTA],adhesive interactions of E48^hi cells with E-selectin coated substrate,eliminated
